From PubChem BioAssay (NCI)
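Where inhibition never reached the appropriate level, the endpoint shown equals the highest concentration tested. Otherwise, values were interpolated linearly from a five-concentration, 48-hour dose response in 96-well plates. The concentration for 50% growth inhibition is given as GI50. TGI denotes the concentration required for complete inhibition of growth.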

Columns and labels:
Test in all cases: NCI tumour cell line growth inhibition, 48 h
[1] = tested on: SF-295 CNS
[2] = tested on: NCI-H460 lung
[3] = tested on: K-562 leukemia
[4] = tested on: A498 renal
[5] = tested on: RPMI-8226 leukemia
[6] = tested on: UACC-257 melanoma
[7] = tested on: DU-145 prostate
[8] = tested on: OVCAR-4 ovarian
[9] = tested on: MDA-MB-468 breast
[10] = tested on: IGROV1 ovarian
[11] = tested on: SR leukemia
[12] = tested on: U251 CNS
[13] = tested on: SW-620 colon
[14] = tested on: M14 melanoma
[15] = tested on: KM12 colon
[16] = tested on: MDA-MB-435
[17] = tested on: HCC-2998 colon
[18] = tested on: SF-268 CNS
[19] = tested on: NCI-H23 lung
[20] = tested on: NCI-H226 lung
[21] = tested on: SK-OV-3 ovarian
[22] = tested on: SK-MEL-2 melanoma
[23] = tested on: HCT-15 colon
[24] = tested on: HT29 colon
[25] = tested on: SF-539 CNS
[26] = tested on: RXF 393 renal
[27] = tested on: TK-10 renal
[28] = tested on: UACC-62 melanoma
[29] = tested on: CAKI-1 renal
[30] = tested on: NCI-H522 lung
[31] = tested on: OVCAR-3 ovarian
[32] = tested on: HOP-92 NSCLC
[33] = tested on: NCI/ADR-RES ovarian
[34] = tested on: EKVX NSCLC
[35] = tested on: MALME-3M melanoma
[36] = tested on: MOLT-4 leukemia
[37] = tested on: HOP-62 NSCLC
[38] = tested on: CCRF-CEM leukemia
[39] = tested on: BT-549 breast
[40] = tested on: SNB-75 CNS
[41] = tested on: ACHN renal
[42] = tested on: UO-31 renal
[43] = tested on: A549 NSCLC
[44] = tested on: SK-MEL-28 melanoma
[45] = tested on: HS 578T breast
[46] = tested on: LOX IMVI melanoma
[47] = tested on: SN12C renal
[48] = tested on: T-47D breast
[49] = tested on: COLO 205 colon
[50] = tested on: HCT-116 colon
[51] = tested on: OVCAR-5 ovarian
[52] = tested on: 786-0 renal
[53] = tested on: MCF7 breast
[54] = tested on: SK-MEL-5 melanoma
[55] = tested on: PC-3 prostate
[56] = tested on: HL-60(TB) leukemia
[57] = tested on: MDA-MB-231 breast
[58] = tested on: SNB-19 CNS
[59] = tested on: OVCAR-8 ovarian

Cc1ccc(C(=O)CSc2nnc(-c3c[nH]c4ccccc34)n2-c2ccccc2)cc1
GI50 [1]: 12.6 µM | TGI [1]: 25.9 µM | GI50 [2]: 15.2 µM | TGI [2]: 31 µM | GI50 [3]: 22.1 µM | TGI [3]: > 100 µM | GI50 [4]: 22.1 µM | TGI [4]: 69.4 µM | GI50 [5]: 29.8 µM | TGI [5]: > 100 µM | GI50 [6]: 28.9 µM | TGI [6]: > 100 µM | GI50 [7]: 44.3 µM | TGI [7]: > 100 µM | GI50 [8]: 14.5 µM | TGI [8]: 41.5 µM | GI50 [9]: 12.8 µM | TGI [9]: 32.3 µM | GI50 [10]: 16.1 µM | TGI [10]: 31.3 µM | GI50 [11]: 42 µM | TGI [11]: > 100 µM | GI50 [12]: 23.6 µM | TGI [12]: 65.6 µM | GI50 [13]: 30.3 µM | TGI [13]: > 100 µM | GI50 [14]: 32.1 µM | TGI [14]: > 100 µM | GI50 [15]: 36.1 µM | TGI [15]: > 100 µM | GI50 [16]: 22.8 µM | TGI [16]: 65.4 µM | GI50 [17]: 20 µM | TGI [17]: 51.7 µM | GI50 [18]: 24.2 µM | TGI [18]: 78.9 µM | GI50 [19]: 13.7 µM | TGI [19]: 27.5 µM | GI50 [20]: 9.22 µM | TGI [20]: 26.1 µM | GI50 [21]: 17 µM | TGI [21]: 33.1 µM | GI50 [22]: 30.2 µM | TGI [22]: > 100 µM | GI50 [23]: 22.6 µM | TGI [23]: > 100 µM | GI50 [24]: 15.6 µM | TGI [24]: 50.5 µM | GI50 [25]: 15 µM | TGI [25]: 28.5 µM | GI50 [26]: 13.6 µM | TGI [26]: 28.9 µM | GI50 [27]: 23.2 µM | TGI [27]: 44.4 µM | GI50 [28]: 15.3 µM | TGI [28]: 38.1 µM | GI50 [29]: 14.9 µM | TGI [29]: 29.8 µM | GI50 [30]: 16.3 µM | TGI [30]: 43.7 µM | GI50 [31]: 18 µM | TGI [31]: 43.3 µM | GI50 [32]: 14.7 µM | TGI [32]: 34.7 µM | GI50 [33]: 11.9 µM | TGI [33]: 30.2 µM | GI50 [34]: 19 µM | TGI [34]: 98.9 µM | GI50 [35]: 16.2 µM | TGI [35]: 36.2 µM | GI50 [36]: 21.8 µM | TGI [36]: > 100 µM | GI50 [37]: 16.1 µM | TGI [37]: 35.9 µM | GI50 [38]: 54.4 µM | TGI [38]: > 100 µM | GI50 [39]: 25.1 µM | TGI [39]: 46.7 µM | GI50 [40]: 12.9 µM | TGI [40]: 29.6 µM | GI50 [41]: 13.7 µM | TGI [41]: 29.2 µM | GI50 [42]: 14.2 µM | TGI [42]: 31.4 µM | GI50 [43]: 13.9 µM | TGI [43]: 48.5 µM | GI50 [44]: 19.6 µM | TGI [44]: 52.1 µM | GI50 [45]: 14.1 µM | TGI [45]: 56.3 µM | GI50 [46]: 14.3 µM | TGI [46]: 27.3 µM | GI50 [47]: 19.4 µM | TGI [47]: 48.9 µM | GI50 [48]: 24.9 µM | TGI [48]: > 100 µM | GI50 [49]: 34.4 µM | TGI [49]: > 100 µM | GI50 [50]: 18.7 µM | TGI [50]: 60.4 µM | GI50 [51]: 19.4 µM | TGI [51]: 37.2 µM | GI50 [52]: 14.7 µM | TGI [52]: 31.2 µM | GI50 [53]: 15.7 µM | TGI [53]: 39.2 µM | GI50 [54]: 16.5 µM | TGI [54]: 39.1 µM | GI50 [55]: 12.4 µM | TGI [55]: 37.8 µM | GI50 [56]: 30.8 µM | TGI [56]: > 100 µM | GI50 [57]: 15.4 µM | TGI [57]: 32.6 µM | GI50 [58]: 15.8 µM | TGI [58]: 34.5 µM | GI50 [59]: 24.5 µM | TGI [59]: > 100 µM
